Laboratory results taken from US6638546B2 (Council of Scientific & Industrial Research, priority 2001, dated 2003).
Entries after “also recorded” stand apart in the source; their conditions may differ.

Columns and labels:
[1] = target: T1, M3 receptors (Cavia porcellus, UniProt H0W1Z3); test: Dose response curve of acetylcholine on isolated guinea pig ileum; details: 98, 196 and 392×10^−6 moles per ml of bath
T1 construct: from tissue; host or cells: guinea pig longitudinal ileal muscle; guinea pig bladder detrusor strips
T1 sequence (H0W1Z3 1-590): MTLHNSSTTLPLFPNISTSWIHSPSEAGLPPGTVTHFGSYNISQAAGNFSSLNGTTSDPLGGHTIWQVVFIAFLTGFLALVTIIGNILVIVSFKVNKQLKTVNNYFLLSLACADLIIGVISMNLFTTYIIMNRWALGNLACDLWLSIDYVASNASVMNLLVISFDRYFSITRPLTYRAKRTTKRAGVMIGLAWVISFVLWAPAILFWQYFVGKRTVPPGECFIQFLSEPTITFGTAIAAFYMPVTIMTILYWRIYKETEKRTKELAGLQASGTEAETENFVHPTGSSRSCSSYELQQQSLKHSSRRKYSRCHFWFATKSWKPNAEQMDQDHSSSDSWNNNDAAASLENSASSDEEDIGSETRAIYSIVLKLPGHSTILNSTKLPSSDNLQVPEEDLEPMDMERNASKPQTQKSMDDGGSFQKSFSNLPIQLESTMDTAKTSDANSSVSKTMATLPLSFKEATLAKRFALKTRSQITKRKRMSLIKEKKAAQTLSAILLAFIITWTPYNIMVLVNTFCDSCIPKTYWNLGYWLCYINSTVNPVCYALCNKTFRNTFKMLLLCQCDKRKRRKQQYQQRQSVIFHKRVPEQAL
From the text: (§1) The three doses prepared and applied were 98×10^−6 moles per milliliter of bath concentration; 196×10^−6 moles per milliliter of bath concentration and 392×10^−6 moles per milliliter of bath concentration. For comparative purposes, the three doses of atropine used were 35×10^−6 moles per milliliter of bath concentration; 86×10^−6 moles per milliliter of bath concentration and 173×10^−[…] moles per milliliter of bath concentration.
The longitudinal ileal muscle was suspended in an organ bath in aerated Tyrode solution. […]. Doses of the compound were as given in Example 5.

[2] = target: T2, M2 receptors (Cavia porcellus, UniProt H0VRN8); test: Dose response curve of acetylcholine on isolated guinea pig atria; details: for Inhibitory effect on rate and force of contraction of guinea pig atria (M2 block): dosage range used
T2 construct: The atria beat spontaneously; from tissue; host or cells: isolated guinea pig atria
T2 sequence (H0VRN8 1-466): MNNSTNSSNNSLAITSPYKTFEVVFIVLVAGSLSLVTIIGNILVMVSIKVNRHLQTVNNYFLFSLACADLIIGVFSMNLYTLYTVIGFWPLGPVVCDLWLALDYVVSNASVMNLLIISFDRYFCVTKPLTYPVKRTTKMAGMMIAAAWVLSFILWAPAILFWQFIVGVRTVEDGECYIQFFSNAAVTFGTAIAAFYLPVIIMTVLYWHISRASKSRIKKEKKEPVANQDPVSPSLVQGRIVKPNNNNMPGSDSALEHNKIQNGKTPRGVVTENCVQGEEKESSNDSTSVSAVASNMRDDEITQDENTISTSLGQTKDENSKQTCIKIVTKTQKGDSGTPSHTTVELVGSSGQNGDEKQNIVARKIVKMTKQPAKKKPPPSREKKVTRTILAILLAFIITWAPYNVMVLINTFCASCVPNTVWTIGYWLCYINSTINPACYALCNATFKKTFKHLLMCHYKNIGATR
Procedure: The in vitro experiments were performed on atria, ileum and bladder tissues of guinea pig. Atria were removed, and one end was tied to an oxygen tube and the other end was fixed to a Force transducer (Model T-305), which is connected to a physiograph (Biodevices Physiograph). The atria beat spontaneously, and after equilibration (30 minutes), resting tension was adjusted to the peak of the length tension curve followed by a re-equilibration period (30 minutes). Cumulative concentration response curves to acetylcholine were obtained before and after addition of increasing concentrations of the compound (doses said in Example 5). Responses were expressed as a percentage of the maximal inhibition of atrial rate induced by acetylcholine in absence of the antagonist (compound).

[3] = target: T1, M3 receptors; test: Dose response curve of acetylcholine on guinea pig bladder detrusor strips; details: 98, 196 and 392×10^−6 moles per ml of bath
From the text: as §1
The longitudinal bladder detrusor strips were suspended under a resting tension (0.5 g) in aerated Tyrode physiological solution. Tension was measured with an isometric force transducer (FT 305), and responses were recorded on a Biodevices Physiograph. Antimuscarinic activity was determined from concentration response curves to acetylcholine in the absence or presence of increasing concentrations of the said compound. Contractile responses were expressed as a percentage of the maximum contraction elicited by acetylcholine in the absence of the said compound.

[4] = tested on: Salmonella; details: Salmonella and mammalian microsome assays; cited from earlier work
[5] = target: T3, M1 receptors (Rattus norvegicus, UniProt P08482); test: Basal gastric acidity by pyloric ligation in rats; format: in vivo; details: for % inhibition of gastric acidity: 15 min before pyloric ligation
T3 construct: from tissue; host or cells: living albino rats (stomach)
T3 sequence (P08482 1-460): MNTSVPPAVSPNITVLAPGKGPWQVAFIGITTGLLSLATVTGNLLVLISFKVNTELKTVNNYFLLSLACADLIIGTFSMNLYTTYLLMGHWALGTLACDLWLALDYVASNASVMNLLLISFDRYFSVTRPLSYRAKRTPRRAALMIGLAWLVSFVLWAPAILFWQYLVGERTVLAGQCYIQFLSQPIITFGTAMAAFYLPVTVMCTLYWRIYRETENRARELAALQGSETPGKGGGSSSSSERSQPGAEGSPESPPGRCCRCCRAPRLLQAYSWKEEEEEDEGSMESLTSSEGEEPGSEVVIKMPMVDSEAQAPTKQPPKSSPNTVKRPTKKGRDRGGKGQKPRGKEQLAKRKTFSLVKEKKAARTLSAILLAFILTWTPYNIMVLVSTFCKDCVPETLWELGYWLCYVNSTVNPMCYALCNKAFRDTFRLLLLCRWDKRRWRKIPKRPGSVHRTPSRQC
Procedure: These activities were tested upon rats. […] For comparative purposes, the doses of atropine used for testing gastric acidity were 0.01 milligram per kilogram of the body weight of rat injected subcutaneously (0.01 mg/kg s.c), 0.05 milligram per kilogram of the body weight of rat injected subcutaneously (0.05 mg/kg s.c), 0.10 milligram per kilogram of the body weight of rat injected subcutaneously (0.10 mg/kg s.c.).
The in vivo experiments for gastric acidity testing were performed by pyloric ligation on rats. Albino rats of either sex weighing 190-250 grams were randomly divided into groups of 6, with a group of 6 rats serving as control. All the rats were starved for 48 hours prior to the experiment. After the first 24 hours, they were given access to 8% sucrose in 0.2% sodium chloride for 8 hours. Water was permitted adlibitum except during the 8 hours of sucrose treatment and 2 hours previous to pyloric ligation.
Basal gastric acidity was determined by pyloric ligation under ether anaesthesia followed by gastric lavage with normal saline. […] Three hours later the animals were killed and the stomach was tied at the oesophageal junction and removed. The contents were collected by cutting along the greater curvature and the free acidity was determined by titration against 0.01 normal NaOH using Topfers reagent as indicator.

[6] = rat, in vivo; cited from earlier work

Structure (SMILES)	Antagonism of acetylcholine contractions of ileum smooth muscle [1]	Inotropic or chronotropic effect on its own on guinea pig atrium ([2]; 20, 40, 196 and 392×10^−6 moles per ml of bath)	Inhibitory effect on rate and force of contraction of guinea pig atria (M2 block) [2]	Antagonism of acetylcholine on bladder detrusor strips [3]	Mutagenic effect [4]	% inhibition of gastric acidity ([5]; rat, 1 mg/kg s.c.) [%]	% inhibition of gastric acidity ([5]; rat, 3 mg/kg s.c., 3 mg/kg) [%]	% inhibition of gastric acidity ([5]; rat, 5 mg/kg s.c., 5 mg/kg) [%]	Effect on basal gastric (free) acidity ([5]; rat, 1, 3 & 5 mg/kg s.c.)	ED50 ([5]; sc, rat, s.c., read-out: ED50 for inhibition of gastric acidity) [mg/kg]	Oral toxicity [6]
CCCCCCCCCCCCCCCC(=O)OC [methyl palmitate]	antagonised contractions of smooth muscle of the ileum	did not produce any positive inotropic or chronotropic effect	had no such effect in the dosage range used; also recorded: does not block M2 receptors	antagonised the effect of acetylcholine in a dose-dependent and competitive manner	devoid of any mutagenic effect	50.72	55	91.5	decreased free acidity; also recorded: inhibited basal gastric acidity dose dependently	2.74	nontoxic
CN1[C@@H]2CC[C@H]1C[C@@H](OC(=O)C(CO)c1ccccc1)C2 (stereo partly drawn) [Atropine, reference compound]			inhibitory effect on all the three receptors								
